Results as given in US7625713B2, “Process for identifying a ligand that binds to the NEP binding site for the SMR1 pentapeptide” (Institut Pasteur, priority 2000, dated 2009).
Where a SMILES comes first, the peptide text is derived from it.

Legend:
NEP [1] = target: T1, NEP (Rattus norvegicus, UniProt P07861); experiment: Met-enkephalinase activity of rat spinal cord slices, Met-enkephalin RIA; format: biochemical; settings: 10 μM, fresh spinal cord tissue, 20 min at 25° C.
T1 construct: incubations of membrane and fresh tissue slice preparations from nervous tissues; from tissue; host or cells: dorsal spinal cord of male Wistar rats (fresh slices or 100 000 x g membrane fraction)
T1 sequence (P07861 1-750): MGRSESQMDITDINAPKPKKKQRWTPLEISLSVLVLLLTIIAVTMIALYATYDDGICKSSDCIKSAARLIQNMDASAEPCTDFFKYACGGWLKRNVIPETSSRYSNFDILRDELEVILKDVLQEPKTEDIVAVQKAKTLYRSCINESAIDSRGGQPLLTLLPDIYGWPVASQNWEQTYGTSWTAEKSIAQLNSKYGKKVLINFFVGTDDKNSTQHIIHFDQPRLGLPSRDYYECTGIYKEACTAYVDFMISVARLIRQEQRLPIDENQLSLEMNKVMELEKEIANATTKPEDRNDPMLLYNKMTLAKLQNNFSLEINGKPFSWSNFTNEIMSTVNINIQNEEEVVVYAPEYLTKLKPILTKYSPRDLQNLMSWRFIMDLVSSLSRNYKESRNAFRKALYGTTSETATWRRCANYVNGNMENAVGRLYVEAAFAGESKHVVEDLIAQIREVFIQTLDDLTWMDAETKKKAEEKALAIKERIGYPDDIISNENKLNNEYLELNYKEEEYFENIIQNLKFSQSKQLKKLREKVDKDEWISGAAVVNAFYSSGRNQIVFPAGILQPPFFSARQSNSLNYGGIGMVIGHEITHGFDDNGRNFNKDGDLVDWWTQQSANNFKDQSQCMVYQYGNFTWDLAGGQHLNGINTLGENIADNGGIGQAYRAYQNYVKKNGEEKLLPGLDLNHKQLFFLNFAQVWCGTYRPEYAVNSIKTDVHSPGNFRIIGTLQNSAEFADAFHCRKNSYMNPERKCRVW
Experimental: FIG. 2-A: […] The organs are rapidly removed, dissected on ice, freed of nerve fibers and of adipose tissues and then washed in cold oxygenated glucose- and bicarbonate-containing Krebs Ringer (KRBG) solution, whose composition is the following: 120 mM NaCl-5 mM KCl-1.2 mM KH2PO4-27.5 mM NaHCO3-2.6 mM CaCl2-0.67 mM MgSO4-5.9 mM glucose. The slices of tissues are prepared either manually with the aid of a scalpel (1-2 mm thick), or mechanically with the aid of a “Tissue Chopper” (1 mm thick). Slices are then dispersed into reaction tubes where they are subjected to three successive washes in ice-cold oxygenated KRBG. […] For the experiments of analysis of the NEP peptidase activity, an ex vivo model using incubations of membrane and fresh tissue slice preparations from nervous tissues that are known to be appropriate for exploring NEP peptidase activity: i.e. the dorsal zone of rat spinal cord, was first developed. The metabolism rate of the NEP-sensitive peptides was measured using the both NEP substrates involved in the signaling of the nociceptive response: the neuropeptides Met-enkephalin and Substance P. […] (NEN, 12.5-25 nM) were used. The objective was to measure the NEP-specific endoproteolysis of these substrates. […] Furthermore, for studying the functional role of […] NO: 2), the reaction was carried out in the presence of the SMR1-peptide alone or combined with specific inhibitors of membrane peptidases which could inactivate the […] […] Herein, a competitive RIA system has been used: the quantity of radioactive antigen bound to the antibody decreases in a manner inversely proportional to the quantity of antigen contained in the standard solution or in the sample. […] The activity of enkephalinase NEP is monitored by quantification of the disappearance of the initial Met-enkephalin substrate. […] The radiolabeled antigen is iodinated Met-enkephalin (^125I-Met-Enk enkephalin) with a specific radioactivity estimated at 3000 Ci/mmol. […] After centrifugation, the bound radioactivity of the precipitate is quantified using a gamma-spectrometer.

male rats = experiment: Pin pain test; format: in vivo, rat
Experimental: The 3-min test session was performed 5 min after intravenous. rat tail vein administration of sialorphin or its vehicle. Naloxone (0.3 mg per kg body weight) was injected subcutaneously 15 min before sialorphin administration. Time in centre field sector (FIG. 6-C) (central square of the open-field without pin) and activity (FIGS. 6-A and 6-B) in peripheral squares (overlayed with pins) during the 3-min test session. Each value represents the mean±sem of 8 animals per group. […] Control group corresponded to pain response in vehicle-treated rats. 50 μg/kg sialorphin, 100 μg/kg sialorphin, 100 μg/kg sialorphin plus naloxone 0.3 mg/kg.
To extend the insight into the in vivo possible antinociceptive property of sialorphin through enkephalin-degrading enzyme inhibition, its effects were assessed in rat model of pain, i.e. the pin pain test, (Hebert et al. (1999) Physiology & Behavior 67, 99-105) in which the various behavioural parameters of pain responses were recorded with a 3-min cutoff time.
The in vivo activity of sialorphin was tested on the pin pain assay using male rats (350-400 g, Charles Rivers). The experimental device consists in an open-field (45×45×40 cm) which is divided into nine equal squares (150×150 mm), eight of them are peripheral and one is central. The peripheral squares are overlayed with stainless steel pins (2/cm2, length 8 mm and diameter 0.6 mm). The test consisted in placing the rat in the central square of the open-field and recording its different behaviours (cut-off time, 3 min). Two days before the pain test, the rats were familiarised with the experimental device without pins for 20 min, so as to reduce the stress linked to the spatial neophobia. All statistical analyses were carried out using the Statview 5 statistical package.

NEP [2] = target: T1, NEP; experiment: 3H-Substance P hydrolysis by rat spinal cord slices; format: biochemical; settings: 10 μM combined with GEMSA (10 μM) and DPPIV inhibitor (10 μM), 25° C., read-out: inhibition of Substance P degradation
Experimental: For the experiments of analysis of the NEP peptidase activity, an ex vivo model using incubations of membrane and fresh tissue slice preparations from nervous tissues that are known to be appropriate for exploring NEP peptidase activity: i.e. the dorsal zone of rat spinal cord, was first developed. […] (NEN, 12.5-25 nM) were used.
The objective was to measure the NEP-specific endoproteolysis of these substrates.

[3] = 100 μg per kg intravenous, 3-min trial, n=8, mean±sem

N=C(N)NCCC[C@H](NC(=O)[C@@H]1CCCN1C(=O)[C@H](CC(N)=O)NC(=O)[C@H](Cc1c[nH]cn1)NC(=O)[C@@H](N)CCC(N)=O)C(=O)O [sialorphin, Gln-His-Asn-Pro-Arg] (H-QHNPR-OH; N-terminus and C-terminus assumed)
protection of Met-enkephalin from degradation (NEP [1]): 96% | frequency of crossings peripheral squares (male rats; 100 μg per kg intravenous, 3-min trial 5 min after administration, n=8, mean±sem): 11.13±1.43 | number of audible vocalisation responses (male rats; [3]): 0.25±0.16 | number of escape responses (male rats; [3]): 0.13±0.13 | rearings on peripheral squares (male rats; [3]): 3.88±0.83 | analgesia (male rats; 100 μg/kg given intravenously): 74-97% | time in the central area of the open-field (male rats; sialorphin intravenous alone, second test trial, 3-min test): 57.75 ± 21.30 s | inhibition at 10 µM (NEP [2]): > 90%
